This note sets out measurements from PubChem BioAssay (NCI).

Test systems include HOP-92 NSCLC; SNB-75 CNS; MDA-MB-435; HCT-116 colon; MCF7 breast; COLO 205 colon; BT-549 breast; MALME-3M melanoma; SK-MEL-2 melanoma; M14 melanoma.
Assay in all cases: growth of human tumour cells (NCI), 48 h

Where “and” joins values, the source holds several entries; their conditions need not be identical. Equal values may be shown once.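 Where inhibition never reached the appropriate level, the endpoint shown equals the highest concentration tested. Otherwise, values were interpolated linearly from a five-concentration, 48-hour dose response in 96-well plates. GI50 marks 50% less growth. TGI denotes the concentration required for complete inhibition of growth.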 Bounds are passed on as bounds.

Consider `CC(c1ccccc1)[C@@H](C(=O)Nc1ccc(I)cc1F)N1C(=O)N[C@H](c2ccc(OC[C@H](O)CO)cc2)C1=O` (some centres not stated), for which the GI50 in the test with HOP-92 NSCLC was 552 nM; with SNB-75 CNS, greater than 11.1 µM; in the test with MDA-MB-435, 81.7 nM; in the test with HCT-116 colon it was 1120 nM; in the test on MCF7 breast, greater than 15 µM; in the test on COLO 205 colon, 36.8 nM. For the same compound, the GI50 is 9.17 µM in the test with BT-549 breast, 2.5 nM in the test on MALME-3M melanoma, 158 nM in the test with SK-MEL-2 melanoma and 70.7 nM in the test with M14 melanoma. Also, the TGI in the test on HOP-92 NSCLC was 7.03 µM; in the test on SNB-75 CNS, greater than 25 µM; in the test on MDA-MB-435, greater than 25 µM; in the test on HCT-116 colon, greater than 25 µM; in the test with MCF7 breast it was greater than 25 µM; in the test on COLO 205 colon it was greater than 25 µM. Moreover, the TGI was greater than 23.7 µM in the test with BT-549 breast, 0.0856 µM in the test on MALME-3M melanoma, 1.51 µM in the test on SK-MEL-2 melanoma and 5.74 µM with M14 melanoma.

Consider `NC1=NC(=O)/C(=C/c2ccc3ncccc3c2)S1`, for which the GI50 was greater than 25000 nM in the test with HOP-92 NSCLC; greater than 25 µM in the test with SNB-75 CNS; greater than 10900 nM in the test with MDA-MB-435; greater than 13800 nM in the test with HCT-116 colon; greater than 12.2 µM with MCF7 breast; greater than 25000 nM in the test on COLO 205 colon. Also, the GI50 was greater than 18.8 µM in the test with BT-549 breast, greater than 25000 nM in the test on MALME-3M melanoma, greater than 20700 nM with SK-MEL-2 melanoma and greater than 25000 nM with M14 melanoma. Further, the TGI with HOP-92 NSCLC, in the test on SNB-75 CNS, in the test with MDA-MB-435, in the test with HCT-116 colon, with MCF7 breast and with COLO 205 colon was greater than 25 µM in each case. For the same compound, the TGI with BT-549 breast, in the test on MALME-3M melanoma, in the test with SK-MEL-2 melanoma and in the test on M14 melanoma was greater than 25 µM in each case.

Turning to `CCOC(=O)c1c(NC(=O)c2ccccc2)sc2c3c(ccc12)OCN(C)C3`, the GI50 in the test on HOP-92 NSCLC was 1200 nM; in the test on SNB-75 CNS, 1.4 µM; with MDA-MB-435, 1640 nM; with HCT-116 colon, 1770 nM; in the test with MCF7 breast it was 1.59 µM; with COLO 205 colon, 1770 nM. In addition, the GI50 was 5.76 µM with BT-549 breast, 1780 nM with MALME-3M melanoma, 2070 nM in the test on SK-MEL-2 melanoma and 1740 nM in the test on M14 melanoma. Also, the TGI with HOP-92 NSCLC was 2.68 µM; with SNB-75 CNS, 2.74 µM; in the test with MDA-MB-435, 3.02 µM; in the test with HCT-116 colon it was 3.27 µM; with MCF7 breast, 3.17 µM; in the test on COLO 205 colon, 3.7 µM. The TGI came to 19.5 µM in the test with BT-549 breast, 3.43 µM with MALME-3M melanoma, 4.02 µM in the test on SK-MEL-2 melanoma and 3.29 µM in the test with M14 melanoma.

On to `COc1ccc2nc3cc([N+](=O)[O-])ccc3c(NNc3ccccc3)c2c1`, for which the GI50 with HOP-92 NSCLC is 11500 nM; with SNB-75 CNS it was 15.6 µM; in the test with MDA-MB-435, 13400 nM; in the test on MCF7 breast it was 4.34 µM; in the test on COLO 205 colon it was 17100 nM; in the test on BT-549 breast it was 15.9 µM. Also, the GI50 in the test on M14 melanoma was 24200 nM. Besides, the TGI was 28 µM and 47.4 µM in the test on HOP-92 NSCLC; 35.7 µM and > 100 µM with SNB-75 CNS; 35.3 µM and > 100 µM with MDA-MB-435; 28.2 µM and 28.6 µM in the test with HCT-116 colon; 19.6 µM and 45.4 µM in the test on MCF7 breast; 37.5 µM and 29.5 µM in the test with COLO 205 colon. The TGI is 35.7 µM and > 100 µM in the test with BT-549 breast; 43.4 µM in the test with MALME-3M melanoma; greater than 78.9 µM with SK-MEL-2 melanoma; 75.2 µM and > 100 µM in the test with M14 melanoma.

With `O=CNc1ccc(S(=O)(=O)c2ccc(NC=O)cc2)cc1`, the TGI with HOP-92 NSCLC, in the test on SNB-75 CNS, in the test with MDA-MB-435, in the test with HCT-116 colon, in the test with MCF7 breast and with COLO 205 colon was greater than 100 µM throughout. Also, the TGI with BT-549 breast, with MALME-3M melanoma, in the test on SK-MEL-2 melanoma and with M14 melanoma was greater than 100 µM throughout.

On to `O=c1ccc(=O)n(-c2ccccc2)[nH]1`, for which the TGI with HOP-92 NSCLC, in the test with SNB-75 CNS, in the test with MDA-MB-435, with HCT-116 colon, in the test on MCF7 breast and with COLO 205 colon was greater than 100 µM throughout. Also, the TGI with BT-549 breast, with MALME-3M melanoma, with SK-MEL-2 melanoma and in the test on M14 melanoma was greater than 100 µM in each case.

Regarding `O=C(O)c1c(Cl)c(Cl)c(Cl)c(Cl)c1C(=O)Nc1ccc2cn[nH]c2c1`, the TGI in the test with HOP-92 NSCLC, in the test with SNB-75 CNS, in the test with MDA-MB-435, in the test with HCT-116 colon, in the test with MCF7 breast and in the test with COLO 205 colon was greater than 100 µM each time. Further, the TGI in the test on BT-549 breast, in the test on MALME-3M melanoma, in the test with SK-MEL-2 melanoma and in the test on M14 melanoma was greater than 100 µM in each case.

Regarding `COc1ccc(C(=O)O[C@H]2[C@H](O[C@H]3[C@@H](O)COC(O[C@H]4C[C@H]5[C@@H]6CC=C7C[C@@H](O)CC[C@]7(C)[C@H]6CC[C@]5(C)[C@H]4[C@H](C)C(=O)CCC(C)C)[C@@H]3OC(C)=O)OC[C@@H](O)[C@@H]2O)c(C)c1` (some centres not stated), the GI50 in the test with HOP-92 NSCLC is less than 10 nM; in the test on SNB-75 CNS it was less than 0.01 µM; in the test on MDA-MB-435, less than 10 nM; with HCT-116 colon it was less than 10 nM; in the test on MCF7 breast, less than 0.01 µM; with COLO 205 colon, 17.8 nM. In addition, the GI50 in the test on BT-549 breast is less than 0.01 µM; in the test with MALME-3M melanoma it was 12.7 nM; with SK-MEL-2 melanoma, less than 10 nM; in the test with M14 melanoma it was less than 10 nM. Also, the TGI in the test with HOP-92 NSCLC was 0.0866 µM; in the test on SNB-75 CNS, 13.2 µM; with MDA-MB-435, 0.0774 µM; in the test with HCT-116 colon, 15.8 µM; with MCF7 breast, 11 µM; in the test with COLO 205 colon it was 0.133 µM. Also, the TGI is 10.7 µM with BT-549 breast, 11.6 µM in the test on MALME-3M melanoma, 3.23 µM in the test with SK-MEL-2 melanoma and 0.0102 µM with M14 melanoma.
